Test: in vitro
Details: for Concentration (μM) of analyte PEA, 0 min / Concentration (μM) of analyte PEA, 10 min / Concentration (μM) of analyte PEA, 20 min / Concentration (μM) of analyte PEA, 30 min / Concentration (μM) of analyte PEA, 60 min / % Remaining of Initial (n = 1), 0 min / % Remaining of Initial (n = 1), 10 min / % Remaining of Initial (n = 1), 20 min / % Remaining of Initial (n = 1), 30 min / % Remaining of Initial (n = 1), 60 min: 1 μM; for % Remaining of Initial (n = 1), 0 min: s9, 0 h; for % Remaining of Initial (n = 1), 10 min: s9, 10 min; for % Remaining of Initial (n = 1), 20 min: s9, 20 min; for % Remaining of Initial (n = 1), 30 min: s9, 0.5 h; for % Remaining of Initial (n = 1), 60 min: s9, 1 h; for half-life at 1 μM: s9, Half-life (min)
Method: Reaction mixture, minus cofactors, was prepared as described below. Test article was added into the reaction mixture at a final concentration of 1 μM. […] An aliquot of the reaction mixture (without cofactor cocktail) was equilibrated in a shaking water bath at 37° C. for 3 minutes. The reaction was initiated by the addition of cofactor cocktail (see below), and the mixture was then incubated in a shaking water bath at 37° C. Aliquots (100 μL) were withdrawn 0, 10, 20, 30 and 60 minutes. Test article samples were immediately combined with 300 μL of ice-cold acetonitrile containing 1% formic acid. Control samples were immediately combined with 400 μL of ice-cold 50/50 acetonitrile (ACN)/dH2O containing 0.1% formic acid and internal standard to terminate the reaction. Samples were then mixed and centrifuged to precipitate proteins. Calibration standards were prepared in matched matrix. Samples and standards were assayed by LC-MS/MS using electrospray ionization for both the dosed prodrug and the expected drug (PEA). Analytical conditions are outlined in Appendix 8-1. Test article concentration at each time point was compared to the test article concentration at time 0 to determine the percent remaining at each time point. Half-lives were calculated using GraphPad software, fitting to a single-phase exponential decay equation.
Reaction mixture, minus cofactors, was prepared as described below. Test article was added into the reaction mixture at a final concentration of 1 μM. […] An aliquot of the reaction mixture (without cofactor cocktail) was equilibrated in a shaking water bath at 37° C. for 5 minutes. Reaction was initiated by the addition of cofactor cocktail (see below), and mixture was then incubated in a shaking water bath at 37° C. Aliquots (100 μL) were withdrawn at 0, 10, 20, 30, and 60 minutes. Test article samples were immediately combined with 300 μL of ice-cold acetonitrile containing 1% formic acid. Control samples were immediately combined with 400 μL of ice-cold 50/50 acetonitrile (ACN)/dH2O containing 0.1% formic acid and internal standard to terminate the reaction. Samples were then mixed and centrifuged to precipitate proteins. Calibration standards were prepared in matched matrix. Samples and standards were assayed by LC-MS/MS using electrospray ionization for both dosed prodrug and expected drug (PEA). Analytical conditions are outlined in Appendix 10-1. Test article concentration at each time point was compared to test article concentration at time 0 to determine the percent remaining at each time point. Half-lives were calculated using GraphPad software, fitting to a single-phase exponential decay equation.
The reaction mixture, minus cofactors, was prepared as described below. Test article was added into the reaction mixture at a final concentration of 1 μM. […] An aliquot of the reaction mixture (without cofactor cocktail) was equilibrated in a shaking water bath at 37° C. for 3 minutes. Reaction was initiated by the addition of cofactor cocktail (see below), and the mixture was then incubated in a shaking water bath at 37° C. Aliquots (100 μL) were withdrawn at 0, 10, 20, 30, and 60 minutes. Test article samples were immediately combined with 300 μL of ice-cold acetonitrile containing 1% formic acid. Control samples were immediately combined with 400 μL of ice-cold 50/50 acetonitrile (ACN)/dH2O containing 0.1% formic acid and internal standard to terminate the reaction. Samples were then mixed and centrifuged to precipitate proteins. Calibration standards were prepared in matched matrix. Samples and standards were assayed by LC-MS/MS using electrospray ionization for both dosed prodrug and expected drug (PEA). Analytical conditions are outlined in Appendix 13-1. Test article concentration at each time point was compared to the test article concentration at time 0 to determine the percent remaining at each time point.

Concentration (μM) of analyte PEA, 0 min (both, human): 0.35 µM | Concentration (μM) of analyte PEA, 10 min (both, human): 0.30 µM | Concentration (μM) of analyte PEA, 20 min (both, human): 0.18 µM | Concentration (μM) of analyte PEA, 30 min (both, human): 0.088 µM | Concentration (μM) of analyte PEA, 60 min (both, human): 0.028 µM | % Remaining of Initial (n = 1), 0 min (both, human): 100% | % Remaining of Initial (n = 1), 10 min (both, human): <1.0% | % Remaining of Initial (n = 1), 20 min (both, human): <1.0% | % Remaining of Initial (n = 1), 30 min (both, human): <1.0% | % Remaining of Initial (n = 1), 60 min (both, human): <1.0% | half-life at 1 μM (both, human): < 1 min | Concentration (μM) of analyte PEA, 0 min (male, Beagle, dog): 0.32 µM | Concentration (μM) of analyte PEA, 10 min (male, Beagle, dog): 0.29 µM | Concentration (μM) of analyte PEA, 20 min (male, Beagle, dog): 0.21 µM | Concentration (μM) of analyte PEA, 30 min (male, Beagle, dog): 0.18 µM | Concentration (μM) of analyte PEA, 60 min (male, Beagle, dog): 0.078 µM | % Remaining of Initial (n = 1), 0 min (male, Beagle, dog): 100% | % Remaining of Initial (n = 1), 10 min (male, Beagle, dog): <1.0% | % Remaining of Initial (n = 1), 20 min (male, Beagle, dog): <1.0% | % Remaining of Initial (n = 1), 30 min (male, Beagle, dog): <1.0% | % Remaining of Initial (n = 1), 60 min (male, Beagle, dog): <1.0% | half-life at 1 μM (male, Beagle, dog): < 1 min | Concentration (μM) of analyte PEA, 0 min (male, CD-1, mouse): 0.52 µM | Concentration (μM) of analyte PEA, 10 min (male, CD-1, mouse): 0.23 µM | Concentration (μM) of analyte PEA, 20 min (male, CD-1, mouse): 0.13 µM | Concentration (μM) of analyte PEA, 30 min (male, CD-1, mouse): 0.077 µM | Concentration (μM) of analyte PEA, 60 min (male, CD-1, mouse): 0.022 µM | % Remaining of Initial (n = 1), 0 min (male, CD-1, mouse): 100% | % Remaining of Initial (n = 1), 10 min (male, CD-1, mouse): <1.0% | % Remaining of Initial (n = 1), 20 min (male, CD-1, mouse): <1.0% | % Remaining of Initial (n = 1), 30 min (male, CD-1, mouse): <1.0% | % Remaining of Initial (n = 1), 60 min (male, CD-1, mouse): <1.0% | half-life at 1 μM (male, CD-1, mouse): < 1 min | Concentration (μM) of analyte PEA, 0 min (male, Sprague-Dawley, rat): 0.20 µM | Concentration (μM) of analyte PEA, 10 min (male, Sprague-Dawley, rat): 0.31 µM | Concentration (μM) of analyte PEA, 20 min (male, Sprague-Dawley, rat): 0.18 µM | Concentration (μM) of analyte PEA, 30 min (male, Sprague-Dawley, rat): 0.11 µM | Concentration (μM) of analyte PEA, 60 min (male, Sprague-Dawley, rat): 0.029 µM | % Remaining of Initial (n = 1), 0 min (male, Sprague-Dawley, rat): 100% | % Remaining of Initial (n = 1), 10 min (male, Sprague-Dawley, rat): 13% | % Remaining of Initial (n = 1), 20 min (male, Sprague-Dawley, rat): 2.1% | % Remaining of Initial (n = 1), 30 min (male, Sprague-Dawley, rat): <1.0% | % Remaining of Initial (n = 1), 60 min (male, Sprague-Dawley, rat): <1.0%
SMILES: CCCCCCCCCCCCCCCC(=O)NCCOC(=O)CCC(=O)OCC(O)CO (stereo not shown) [Compound I-9]

Source: patent US11547681B2, “N-acylethanolamide derivatives and uses thereof” (ELIEM THERAPEUTICS, INC., priority 2016, dated 2023)
